Data as given in PubChem BioAssay (NCI).
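Exposure lasted 48 hours, with cells grown in 96-well plates and compounds tested at five concentrations. TGI marks complete inhibition of growth.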

Assays:
Assay in all cases: NCI-60 cell line screen, 48 h
[1] = tested on: 786-0 renal
[2] = tested on: A549 NSCLC
[3] = tested on: ACHN renal
[4] = tested on: BT-549 breast
[5] = tested on: CAKI-1 renal
[6] = tested on: CCRF-CEM leukemia
[7] = tested on: COLO 205 colon
[8] = tested on: DU-145 prostate
[9] = tested on: EKVX NSCLC
[10] = tested on: HCT-116 colon
[11] = tested on: HCT-15 colon
[12] = tested on: HL-60(TB) leukemia
[13] = tested on: HOP-62 NSCLC
[14] = tested on: HOP-92 NSCLC
[15] = tested on: HS 578T breast
[16] = tested on: HT29 colon
[17] = tested on: IGROV1 ovarian
[18] = tested on: K-562 leukemia
[19] = tested on: KM12 colon
[20] = tested on: LOX IMVI melanoma
[21] = tested on: M14 melanoma
[22] = tested on: MALME-3M melanoma
[23] = tested on: MDA-MB-231 breast
[24] = tested on: MDA-MB-435
[25] = tested on: MDA-N
[26] = tested on: MOLT-4 leukemia
[27] = tested on: NCI-H226 lung
[28] = tested on: NCI-H23 lung
[29] = tested on: NCI-H460 lung
[30] = tested on: NCI-H522 lung
[31] = tested on: NCI/ADR-RES ovarian
[32] = tested on: OVCAR-3 ovarian
[33] = tested on: OVCAR-4 ovarian
[34] = tested on: OVCAR-5 ovarian
[35] = tested on: OVCAR-8 ovarian
[36] = tested on: PC-3 prostate
[37] = tested on: RXF 393 renal
[38] = tested on: SF-268 CNS
[39] = tested on: SF-295 CNS
[40] = tested on: SF-539 CNS
[41] = tested on: SK-MEL-2 melanoma
[42] = tested on: SK-MEL-28 melanoma
[43] = tested on: SK-MEL-5 melanoma
[44] = tested on: SK-OV-3 ovarian
[45] = tested on: SN12C renal
[46] = tested on: SNB-19 CNS
[47] = tested on: SNB-75 CNS
[48] = tested on: SW-620 colon
[49] = tested on: T-47D breast
[50] = tested on: TK-10 renal
[51] = tested on: U251 CNS
[52] = tested on: UACC-257 melanoma
[53] = tested on: UACC-62 melanoma
[54] = tested on: UO-31 renal
[55] = tested on: A498 renal
[56] = tested on: HCC-2998 colon
[57] = tested on: MCF7 breast
[58] = tested on: RPMI-8226 leukemia

O=S(=O)(/N=C(\NO)Nc1ccc(Cl)cc1)c1cc2ccccc2o1
TGI [1]: 39.3 µM | TGI [2]: > 100 µM | TGI [3]: 46.1 µM | TGI [4]: 34.8 µM | TGI [5]: 36.7 µM | TGI [6]: 57.4 µM | TGI [7]: 51.1 µM | TGI [8]: > 100 µM | TGI [9]: 41.9 µM | TGI [10]: 24.8 µM | TGI [11]: 34.2 µM | TGI [12]: 37.5 µM | TGI [13]: 83 µM | TGI [14]: 29 µM | TGI [15]: 52.8 µM | TGI [16]: 47.2 µM | TGI [17]: 30.7 µM | TGI [18]: > 100 µM | TGI [19]: 33.5 µM | TGI [20]: 23.9 µM | TGI [21]: 49.6 µM | TGI [22]: 45.2 µM | TGI [23]: 40.9 µM | TGI [24]: 29.7 µM | TGI [25]: 59.6 µM | TGI [26]: > 100 µM | TGI [27]: 71.7 µM | TGI [28]: 48 µM | TGI [29]: > 100 µM | TGI [30]: 25.7 µM | TGI [31]: 55.1 µM | TGI [32]: 28.5 µM | TGI [33]: 56 µM | TGI [34]: 57.2 µM | TGI [35]: 39.8 µM | TGI [36]: 69 µM | TGI [37]: 95 µM | TGI [38]: 55.7 µM | TGI [39]: 47 µM | TGI [40]: > 100 µM | TGI [41]: 35.9 µM | TGI [42]: 35 µM | TGI [43]: 30.9 µM | TGI [44]: 62.3 µM | TGI [45]: 36.1 µM | TGI [46]: > 100 µM | TGI [47]: > 100 µM | TGI [48]: 65.1 µM | TGI [49]: > 100 µM | TGI [50]: > 100 µM | TGI [51]: 33.4 µM | TGI [52]: 51.7 µM | TGI [53]: 29.3 µM | TGI [54]: 91.2 µM

O=C(O)c1cccc(CN2CCCCC2)c1
TGI [1]: > 100 µM | TGI [55]: > 100 µM | TGI [2]: > 100 µM | TGI [3]: > 100 µM | TGI [4]: > 100 µM | TGI [5]: > 100 µM | TGI [6]: > 100 µM | TGI [7]: > 100 µM | TGI [8]: > 100 µM | TGI [9]: > 100 µM | TGI [56]: > 100 µM | TGI [10]: > 100 µM | TGI [11]: > 100 µM | TGI [13]: > 100 µM | TGI [15]: > 100 µM | TGI [16]: > 100 µM | TGI [17]: > 100 µM | TGI [18]: > 100 µM | TGI [19]: > 100 µM | TGI [20]: > 100 µM | TGI [21]: > 100 µM | TGI [22]: > 100 µM | TGI [57]: > 100 µM | TGI [23]: > 100 µM | TGI [24]: > 100 µM | TGI [25]: > 100 µM | TGI [26]: > 100 µM | TGI [27]: > 100 µM | TGI [28]: > 100 µM | TGI [29]: > 100 µM | TGI [30]: > 100 µM | TGI [31]: > 100 µM | TGI [32]: > 100 µM | TGI [33]: > 100 µM | TGI [34]: > 100 µM | TGI [35]: > 100 µM | TGI [36]: > 100 µM | TGI [58]: > 100 µM | TGI [37]: > 100 µM | TGI [38]: > 100 µM | TGI [39]: > 100 µM | TGI [41]: > 100 µM | TGI [42]: > 100 µM | TGI [43]: > 100 µM | TGI [44]: > 100 µM | TGI [45]: > 100 µM | TGI [46]: > 100 µM | TGI [48]: > 100 µM | TGI [49]: > 100 µM | TGI [50]: > 100 µM | TGI [51]: > 100 µM | TGI [52]: > 100 µM | TGI [53]: > 100 µM | TGI [54]: > 100 µM

CO[C@]12C#CC=CC#C[C@@H](O)[C@]3(CCC1)O[C@@]23c1cccc(O)c1
TGI [1]: > 100 µM | TGI [55]: > 100 µM | TGI [2]: > 100 µM | TGI [3]: > 100 µM | TGI [4]: > 100 µM | TGI [5]: > 100 µM | TGI [7]: > 100 µM | TGI [8]: > 100 µM | TGI [56]: > 100 µM | TGI [10]: > 100 µM | TGI [11]: > 100 µM | TGI [13]: > 100 µM | TGI [15]: > 100 µM | TGI [18]: > 100 µM | TGI [19]: > 100 µM | TGI [20]: > 100 µM | TGI [21]: > 100 µM | TGI [57]: > 100 µM | TGI [23]: > 100 µM | TGI [24]: > 100 µM | TGI [25]: > 100 µM | TGI [26]: > 100 µM | TGI [27]: > 100 µM | TGI [28]: > 100 µM | TGI [29]: > 100 µM | TGI [31]: > 100 µM | TGI [32]: > 100 µM | TGI [33]: > 100 µM | TGI [34]: > 100 µM | TGI [35]: > 100 µM | TGI [36]: > 100 µM | TGI [58]: > 100 µM | TGI [37]: > 100 µM | TGI [38]: > 100 µM | TGI [39]: > 100 µM | TGI [41]: > 100 µM | TGI [42]: > 100 µM | TGI [44]: > 100 µM | TGI [45]: > 100 µM | TGI [46]: > 100 µM | TGI [47]: > 100 µM | TGI [48]: > 100 µM | TGI [49]: > 100 µM | TGI [50]: > 100 µM | TGI [51]: > 100 µM | TGI [52]: > 100 µM | TGI [53]: > 100 µM | TGI [54]: > 100 µM
